Measured values as given in patent US20050186617A1, “Gene screening method using nuclear receptor” (Chugai Seiyaku Kabushiki Kaisha, a Japanese corporation, priority 1997, published 2005).

Columns and labels:
[1] = system: 1α (OH)-ase gene; assay: Northern blot of CYP1AD (1α(OH)-ase) gene expression in mice given excess 1α,25(OH)2D3; type: in vivo; settings: 50 ng/mouse
Source text: The tissue distribution of CYP1AD transcripts in 7-week-old normal and VDR−/− mice was examined. Poly(A)^+ RNA was extracted from brain, lung, heart, liver, spleen, kidney, small intestine, skeletal muscle, skin, and bone, and analyzed by northern blot technique using cDNA of CYP1AD and β-actin as probes (K. Takeyama et al., Biochem. Biophys. Res. Commun. 222, 395 (1996); H. Mano et al., J. Biol. Chem. 269, 1591 (1994)). As the result, the transcript of CYP1AD was detected as a single band in the kidney. The size of the transcript (2.4 kbp) is identical to that of cloned cDNA (FIG. 10). Except for kidney, in, 1α (OH)-ase activity has been reported in other tissues than kidney (A. W. Norman, J. Roth, L. Orchi, Endocr. Rev. 3, 331 (1982); H. F. DeLuca, Adv. Exp. Med. Biol. 196, 361 (1986); M. R. Walters, Endocr. Rev 13, 719 (1992); G. A. Howard, R. T. Turner, D. J. Sherrard, D. J. Baylink, J. Biol. Chem. 256, 7738 (1981); T. K. Gray, G. E. Lester, R. S. Lorenc, Science 204, 1311 (1979)). However, the transcript of 1α (OH)-ase was not detected in tissues other than kidney in this experiment.
The relative amount of the hydroxylase gene standardized with the β-actin gene transcripts was measured in at least 5 mice for each group (FIG. 12).

[2] = system: GAL4-VDR(DEF); assay: CAT reporter assay in COS-1 cells co-transformed with GAL4-VDR(DEF) and 17M2-G-CAT; type: cell-based

SMILES | expression of the 1α (OH)-ase gene ([1]; 3- and 7-week-old VDR−/− mice) | expression of the 1α (OH)-ase gene ([1]; VDR+/+ and VDR+/− mice) | activation of the CAT reporter gene ([2]; CYP1AD expressed, with ADX and ADR expression vectors) | activation of the CAT reporter gene ([2]; in the absence of ADX or ADR)
C=C1/C(=C\C=C2/CCC[C@]3(C)[C@@H]([C@H](C)CCCC(C)(C)O)CC[C@@H]23)C[C@@H](O)C[C@@H]1O [1α,25(OH)2D3, 1α,25-Dihydroxyvitamin D3] | the inhibition did not occurred | significantly inhibited |  | 
C=C1CC[C@H](O)C/C1=C/C=C1\CCC[C@]2(C)[C@@H]([C@H](C)CCCC(C)(C)O)CC[C@@H]12 [25(OH)D3, 25-hydroxyvitamin D3] |  |  | activated the CAT reporter gene | did not significantly activate the reporter gene
